Patent US8410161B2, “Thioxanthone ring system derivatives” (National Defense Medical Center, priority 2010, dated 2013)

Columns and labels:
A control cell lines = experiment: MTT assay, A control cell lines (lung cancer cell); format: cell-based
Excerpt: Please refer to Table 1 and FIGS. 4A-4C. According to a MTT assay (Table 1), various cell viabilities of the A control cell lines can be obtained and illustrated in FIG. 4A while the compounds No. 2˜30 are used to treat A control cell lines, wherein A control cell lines are lung cancer cell.

A3 cell lines = experiment: MTT assay, A3 cell lines (lung cancer stem cell); format: cell-based
Excerpt: Please to FIG. 4B, various cell viabilities of the A3 cell lines can be obtained through the MTT assay and illustrated in FIG. 4B while the compounds No. 1˜30 are used to treat A3 cell lines, wherein A3 cell lines are lung cancer stem cell.

[1] = MTT assay, HEL299 fibroblast; format: cell-based; settings: human
Excerpt: Please refer to FIG. 4C, various cell viabilities of the HEL299 cell lines can be obtained through the MTT assay while the compounds No. 1˜30 are used to treat HEL299 cell lines, wherein HEL299 cell lines are fibroblast.

HL-60(TB) = experiment: NCI in vitro DTP human cell line screen, HL-60(TB); format: cell-based; settings: Leukemia, 1.00E−5 Molar
Experimental: (§1) Then, a cell toxicity assay of the cancer lines made by National Cancer Institute will be discussed as follows. The cell toxicity assay is performed by choosing ten compounds (existing certification numbers) from the 59 compounds disclosed in the present invention first.

K562 = experiment: NCI in vitro DTP human cell line screen, K562; format: cell-based; settings: Leukemia, 1.00E−5 Molar
Experimental: as §1

MOLT-4 = experiment: NCI in vitro DTP human cell line screen, MOLT-4; format: cell-based; settings: Leukemia, 1.00E−5 Molar
Experimental: as §1

RPMI-8226 = experiment: NCI in vitro DTP human cell line screen, RPMI-8226; format: cell-based; settings: Leukemia, 1.00E−5 Molar
Experimental: as §1

SR = experiment: NCI in vitro DTP human cell line screen, SR; format: cell-based; settings: Leukemia, 1.00E−5 Molar
Experimental: as §1

EKVX = experiment: NCI in vitro DTP human cell line screen, EKVX; format: cell-based; settings: Non-Small Cell Lung Cancer, 1.00E−5 Molar
Experimental: as §1

NCI-H226 = experiment: NCI in vitro DTP human cell line screen, NCI-H226; format: cell-based; settings: Non-Small Cell Lung Cancer, 1.00E−5 Molar
Experimental: as §1

NCI-H23 = experiment: NCI in vitro DTP human cell line screen, NCI-H23; format: cell-based; settings: Non-Small Cell Lung Cancer, 1.00E−5 Molar
Experimental: as §1

NCI-H322M = experiment: NCI in vitro DTP human cell line screen, NCI-H322M; format: cell-based; settings: Non-Small Cell Lung Cancer, 1.00E−5 Molar
Experimental: as §1

NCI-H460 = experiment: NCI in vitro DTP human cell line screen, NCI-H460; format: cell-based; settings: Non-Small Cell Lung Cancer, 1.00E−5 Molar
Experimental: as §1

NCI-H522 = experiment: NCI in vitro DTP human cell line screen, NCI-H522; format: cell-based; settings: Non-Small Cell Lung Cancer, 1.00E−5 Molar
Experimental: as §1

COLO 205 = experiment: NCI in vitro DTP human cell line screen, COLO 205; format: cell-based; settings: Colon Cancer, 1.00E−5 Molar
Experimental: as §1

HCC-2998 = experiment: NCI in vitro DTP human cell line screen, HCC-2998; format: cell-based; settings: Colon Cancer, 1.00E−5 Molar
Experimental: as §1

HCT-116 = experiment: NCI in vitro DTP human cell line screen, HCT-116; format: cell-based; settings: Colon Cancer, 1.00E−5 Molar
Experimental: as §1

HCT-15 = experiment: NCI in vitro DTP human cell line screen, HCT-15; format: cell-based; settings: Colon Cancer, 1.00E−5 Molar
Experimental: as §1

HT29 = experiment: NCI in vitro DTP human cell line screen, HT29; format: cell-based; settings: Colon Cancer, 1.00E−5 Molar
Experimental: as §1

KM12 = experiment: NCI in vitro DTP human cell line screen, KM12; format: cell-based; settings: Colon Cancer, 1.00E−5 Molar
Experimental: as §1

SW-620 = experiment: NCI in vitro DTP human cell line screen, SW-620; format: cell-based; settings: Colon Cancer, 1.00E−5 Molar
Experimental: as §1

SF-268 = experiment: NCI in vitro DTP human cell line screen, SF-268; format: cell-based; settings: CNS Cancer, 1.00E−5 Molar
Experimental: as §1

SF-295 = experiment: NCI in vitro DTP human cell line screen, SF-295; format: cell-based; settings: CNS Cancer, 1.00E−5 Molar
Experimental: as §1

SF-539 = experiment: NCI in vitro DTP human cell line screen, SF-539; format: cell-based; settings: CNS Cancer, 1.00E−5 Molar
Experimental: as §1

SNB-19 = experiment: NCI in vitro DTP human cell line screen, SNB-19; format: cell-based; settings: CNS Cancer, 1.00E−5 Molar
Experimental: as §1

SNB-75 = experiment: NCI in vitro DTP human cell line screen, SNB-75; format: cell-based; settings: CNS Cancer, 1.00E−5 Molar
Experimental: as §1

U251 = experiment: NCI in vitro DTP human cell line screen, U251; format: cell-based; settings: CNS Cancer, 1.00E−5 Molar
Experimental: as §1

LOX IMVI = experiment: NCI in vitro DTP human cell line screen, LOX IMVI; format: cell-based; settings: Melanoma, 1.00E−5 Molar
Experimental: as §1

MALME-3M = experiment: NCI in vitro DTP human cell line screen, MALME-3M; format: cell-based; settings: Melanoma, 1.00E−5 Molar
Experimental: as §1

M14 = experiment: NCI in vitro DTP human cell line screen, M14; format: cell-based; settings: Melanoma, 1.00E−5 Molar
Experimental: as §1

MDA-MB-435 = experiment: NCI in vitro DTP human cell line screen, MDA-MB-435; format: cell-based; settings: Melanoma, 1.00E−5 Molar
Experimental: as §1

SK-MEL-2 = experiment: NCI in vitro DTP human cell line screen, SK-MEL-2; format: cell-based; settings: Melanoma, 1.00E−5 Molar
Experimental: as §1

SK-MEL-28 = experiment: NCI in vitro DTP human cell line screen, SK-MEL-28; format: cell-based; settings: Melanoma, 1.00E−5 Molar
Experimental: as §1

SK-MEL-5 = experiment: NCI in vitro DTP human cell line screen, SK-MEL-5; format: cell-based; settings: Melanoma, 1.00E−5 Molar
Experimental: as §1

UACC-257 = experiment: NCI in vitro DTP human cell line screen, UACC-257; format: cell-based; settings: Melanoma, 1.00E−5 Molar
Experimental: as §1

UACC-62 = experiment: NCI in vitro DTP human cell line screen, UACC-62; format: cell-based; settings: Melanoma, 1.00E−5 Molar
Experimental: as §1

IGROV1 = experiment: NCI in vitro DTP human cell line screen, IGROV1; format: cell-based; settings: Ovarian Cancer, 1.00E−5 Molar
Experimental: as §1

OVCAR-3 = experiment: NCI in vitro DTP human cell line screen, OVCAR-3; format: cell-based; settings: Ovarian Cancer, 1.00E−5 Molar
Experimental: as §1

OVCAR-4 = experiment: NCI in vitro DTP human cell line screen, OVCAR-4; format: cell-based; settings: Ovarian Cancer, 1.00E−5 Molar
Experimental: as §1

OVCAR-5 = experiment: NCI in vitro DTP human cell line screen, OVCAR-5; format: cell-based; settings: Ovarian Cancer, 1.00E−5 Molar
Experimental: as §1

OVCAR-8 = experiment: NCI in vitro DTP human cell line screen, OVCAR-8; format: cell-based; settings: Ovarian Cancer, 1.00E−5 Molar
Experimental: as §1

NCI/ADR-RES = experiment: NCI in vitro DTP human cell line screen, NCI/ADR-RES; format: cell-based; settings: Ovarian Cancer, 1.00E−5 Molar
Experimental: as §1

SK-OV-3 = experiment: NCI in vitro DTP human cell line screen, SK-OV-3; format: cell-based; settings: Ovarian Cancer, 1.00E−5 Molar
Experimental: as §1

786-0 = experiment: NCI in vitro DTP human cell line screen, 786-0; format: cell-based; settings: Renal Cancer, 1.00E−5 Molar
Experimental: as §1

ACHN = experiment: NCI in vitro DTP human cell line screen, ACHN; format: cell-based; settings: Renal Cancer, 1.00E−5 Molar
Experimental: as §1

CAKI-1 = experiment: NCI in vitro DTP human cell line screen, CAKI-1; format: cell-based; settings: Renal Cancer, 1.00E−5 Molar
Experimental: as §1

RXF 393 = experiment: NCI in vitro DTP human cell line screen, RXF 393; format: cell-based; settings: Renal Cancer, 1.00E−5 Molar
Experimental: as §1

SN12C = experiment: NCI in vitro DTP human cell line screen, SN12C; format: cell-based; settings: Renal Cancer, 1.00E−5 Molar
Experimental: as §1

TK-10 = experiment: NCI in vitro DTP human cell line screen, TK-10; format: cell-based; settings: Renal Cancer, 1.00E−5 Molar
Experimental: as §1

UO-31 = experiment: NCI in vitro DTP human cell line screen, UO-31; format: cell-based; settings: Renal Cancer, 1.00E−5 Molar
Experimental: as §1

PC-3 = experiment: NCI in vitro DTP human cell line screen, PC-3; format: cell-based; settings: Prostate Cancer, 1.00E−5 Molar
Experimental: as §1

DU145 = experiment: NCI in vitro DTP human cell line screen, DU145; format: cell-based; settings: Prostate Cancer, 1.00E−5 Molar
Experimental: as §1

MCF7 = experiment: NCI in vitro DTP human cell line screen, MCF7; format: cell-based; settings: Breast Cancer, 1.00E−5 Molar
Experimental: as §1

MDA-MB-231/ATCC = experiment: NCI in vitro DTP human cell line screen, MDA-MB-231/ATCC; format: cell-based; settings: Breast Cancer, 1.00E−5 Molar
Experimental: as §1

HS 578-T = experiment: NCI in vitro DTP human cell line screen, HS 578-T; format: cell-based; settings: Breast Cancer, 1.00E−5 Molar
Experimental: as §1

BT-549 = experiment: NCI in vitro DTP human cell line screen, BT-549; format: cell-based; settings: Breast Cancer, 1.00E−5 Molar
Experimental: as §1

T-47D = experiment: NCI in vitro DTP human cell line screen, T-47D; format: cell-based; settings: Breast Cancer, 1.00E−5 Molar
Experimental: as §1

MDA-MB-468 = experiment: NCI in vitro DTP human cell line screen, MDA-MB-468; format: cell-based; settings: Breast Cancer, 1.00E−5 Molar
Experimental: as §1

60 cancer lines = experiment: NCI cell toxicity assay of 60 cancer lines, whole panel summary; format: cell-based, human; settings: mean over all cell lines; 1.00E−5 Molar
Experimental: as §1

Cc1cc(C)cc(Sc2ccc3c(=O)c4ccccc4sc3c2Cl)c1 [No. 14, 4-Chloro-3-(3,5-dimethylphenylthio)-9H-thioxanthen-9-one]
cell viabilities of A control cell lines (MTT assay) (A control cell lines): 112 ± 8.03%
cell viabilities of A3 cell lines (MTT assay) (A3 cell lines): 113 ± 0.50%
viability [1]: 104 ± 9.21%
Growth Percent (HL-60(TB)): 99.82%
Growth Percent (K562): 100.94%
Growth Percent (MOLT-4): 99.59%
Growth Percent (RPMI-8226): 101.54%
Growth Percent (SR): 86.99%
Growth Percent (EKVX): 96.66%
Growth Percent (NCI-H226): 97.38%
Growth Percent (NCI-H23): 92.54%
Growth Percent (NCI-H322M): 116.93%
Growth Percent (NCI-H460): 105.72%
Growth Percent (NCI-H522): 91.47%
Growth Percent (COLO 205): 108.10%
Growth Percent (HCC-2998): 101.80%
Growth Percent (HCT-116): 93.28%
Growth Percent (HCT-15): 97.09%
Growth Percent (HT29): 95.28%
Growth Percent (KM12): 109.61%
Growth Percent (SW-620): 104.39%
Growth Percent (SF-268): 104.92%
Growth Percent (SF-295): 116.45%
Growth Percent (SF-539): 105.19%
Growth Percent (SNB-19): 108.53%
Growth Percent (SNB-75): 84.85%
Growth Percent (U251): 95.50%
Growth Percent (LOX IMVI): 96.06%
Growth Percent (MALME-3M): 102.39%
Growth Percent (M14): 107.60%
Growth Percent (MDA-MB-435): 99.38%
Growth Percent (SK-MEL-2): 100.30%
Growth Percent (SK-MEL-28): 117.96%
Growth Percent (SK-MEL-5): 104.23%
Growth Percent (UACC-257): 89.26%
Growth Percent (UACC-62): 96.19%
Growth Percent (IGROV1): 100.06%
Growth Percent (OVCAR-3): 121.13%
Growth Percent (OVCAR-4): 101.64%
Growth Percent (OVCAR-5): 98.39%
Growth Percent (OVCAR-8): 97.95%
Growth Percent (NCI/ADR-RES): 101.13%
Growth Percent (SK-OV-3): 103.14%
Growth Percent (786-0): 110.62%
Growth Percent (ACHN): 98.35%
Growth Percent (CAKI-1): 90.10%
Growth Percent (RXF 393): 114.27%
Growth Percent (SN12C): 101.79%
Growth Percent (TK-10): 103.30%
Growth Percent (UO-31): 87.22%
Growth Percent (PC-3): 97.92%
Growth Percent (DU145): 118.42%
Growth Percent (MCF7): 94.94%
Growth Percent (MDA-MB-231/ATCC): 106.25%
Growth Percent (HS 578-T): 103.67%
Growth Percent (BT-549): 105.50%
Growth Percent (T-47D): 100.87%
Growth Percent (MDA-MB-468): 110.63%
Growth Percent, Mean (60 cancer lines): 101.73%
